Experimental data published in US9296723B2, “NAMPT inhibitors” (AbbVie Inc., priority 2012, dated 2016).
pIC50: −log10 of the molar value.

Columns and labels:
[1] = target: NAMPT (Homo sapiens, UniProt P43490); assay: Time-Resolved Fluorescence Resonance Energy Transfer (TR-FRET) Binding Assay of NAMPT; conditions: 6.8 nM NAMPT, 200 nM probe, equilibrated 3 hours, no substrates
Description: Determination of the utility of compounds having Formula (I) as binders to and inhibitors of NAMPT was performed using Time-Resolved Fluorescence Resonance Energy Transfer (TR-FRET) binding assays.
Time-Resolved Fluorescence Resonance Energy Transfer (TR-FRET) Binding Assay of NAMPT
Six L were transferred to 384-well low-volume plates ([…] #3673). To this, 12 L of a 1.5× solution containing enzyme, probe and antibody were added. […] Reactions were equilibrated at room temperature for 3 hours prior to reading on an Envision multi-label plate reader (Perkin Elmer; Ex=337 nm, Em=520 and 495 nm). Time-resolved FRET ratios (Em520/Em495) were normalized to controls, plotted as a function of compound concentration and fit with the four-parameter logistic equation to determine IC50s.

[2] = system: PC3 cells; assay: NAMPT Cell Proliferation Assay (Cell Titer Glo); format: cell-based; conditions: Homo sapiens, PC-3, 120 h, incubated 5 days, cell viability
Description: NAMPT Cell Proliferation Assay
PC3 cells were seeded in 96-well black plates (Corning #3904) at 500 cells/well in 90 µl of RPMI media containing 10% heat-inactivated FBS and incubated overnight at 37° C. and 5% CO2 to allow cells to attach to wells. The following day, test compounds were serially diluted in neat DMSO to 1000× final concentrations prior to dilution with RPMI media to 10× and 1% DMSO. Ten L of the 10× compounds were then transferred to wells containing cells to produce a dose response of 10-fold dilutions from […]. Cells were incubated for 5 days at 37° C. and 5% CO2, then cell viability was measured using Cell Titer Glo reagent (Promega #G7571). Percent inhibition values were calculated and fitted to a sigmoidal dose response curves using Assay Explorer software to determine IC50s.

Chain of NAMPT (P43490 whole entry): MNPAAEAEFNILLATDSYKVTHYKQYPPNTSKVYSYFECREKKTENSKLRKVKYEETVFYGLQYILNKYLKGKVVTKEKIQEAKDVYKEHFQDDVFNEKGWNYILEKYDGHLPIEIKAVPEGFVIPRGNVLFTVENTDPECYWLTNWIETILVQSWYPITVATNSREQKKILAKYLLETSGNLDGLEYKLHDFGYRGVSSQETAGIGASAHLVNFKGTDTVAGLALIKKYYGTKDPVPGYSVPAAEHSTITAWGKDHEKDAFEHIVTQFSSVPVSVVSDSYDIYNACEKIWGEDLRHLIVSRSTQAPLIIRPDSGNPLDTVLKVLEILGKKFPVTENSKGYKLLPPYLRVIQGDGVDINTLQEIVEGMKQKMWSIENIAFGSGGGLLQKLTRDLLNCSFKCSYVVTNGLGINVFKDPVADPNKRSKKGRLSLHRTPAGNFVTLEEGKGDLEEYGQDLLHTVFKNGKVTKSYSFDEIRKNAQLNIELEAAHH

Row | SMILES | pIC50 [1] | pIC50 [2]
1 | O=C(CC1CC1)N1CC[C@H](Oc2ccc(NC(=O)N3CC(c4cccnc4)C3)cc2)C1 [Example 93, N-(4-{[(3S)-1-(cyclopropylacetyl)pyrrolidin-3-yl]oxy}phenyl)-3-(pyridin-3-yl)azetidine-1-carboxamide] | 6.86 | 7.06
2 | CC(=O)N1CCC(c2ccc(NC(=O)N3CC(c4cccnc4)C3)cc2)C1 (centres unmarked) [Example 277, N-[4-(1-acetylpyrrolidin-3-yl)phenyl]-3-(pyridin-3-yl)azetidine-1-carboxamide] | 7.12 | 7.20
3 | CC(C)(C)OC(=O)N1CC[C@@H](Oc2ccc(NC(=O)N3CC(c4cccnc4)C3)cc2)C1 [Example 60, tert-butyl (3R)-3-[4-({[3-(pyridin-3-yl)azetidin-1-yl]carbonyl}amino)phenoxy]pyrrolidine-1-carboxylate] | 7.26 | 7.13
4 | O=C(Nc1ccc(OC2CCN(C(=O)[C@H]3CCCO3)CC2)cc1)N1CC(c2cccnc2)C1 [Example 5, 3-(pyridin-3-yl)-N-[4-({1-[(2R)-tetrahydrofuran-2-ylcarbonyl]piperidin-4-yl}oxy)phenyl]azetidine-1-carboxamide] | 7.25 | 7.55
5 | Cn1cccc1C(=O)N1CCC(Oc2ccc(NC(=O)N3CC(c4cccnc4)C3)cc2)CC1 [Example 36, N-[4-({1-[(1-methyl-1H-pyrrol-2-yl)carbonyl]piperidin-4-yl}oxy)phenyl]-3-(pyridin-3-yl)azetidine-1-carboxamide] | 7.56 | 7.23
6 | O=C(Nc1ccc(OC2CN(C(=O)c3ccco3)C2)cc1)N1CC(c2cccnc2)C1 [Example 115, N-(4-{[1-(furan-2-ylcarbonyl)azetidin-3-yl]oxy}phenyl)-3-(pyridin-3-yl)azetidine-1-carboxamide] | 8.04 | 8.21
7 | CC(C)Cn1cc(-c2ccc(NC(=O)N3CC(c4cccnc4)C3)cc2)cn1 [Example 157, N-{4-[1-(2-methylpropyl)-1H-pyrazol-4-yl]phenyl}-3-(pyridin-3-yl)azetidine-1-carboxamide] | 7.65 | 7.42
8 | O=C(CC(F)(F)F)N1CCC(c2ccc(NC(=O)N3CC(c4cccnc4)C3)cc2)CC1 [Example 58, 3-(pyridin-3-yl)-N-{4-[1-(3,3,3-trifluoropropanoyl)piperidin-4-yl]phenyl}azetidine-1-carboxamide] | 7.76 | 8.10
9 | CC(C)(C)C(=O)N1CC[C@@H](Oc2ccc(NC(=O)N3CC(c4cccnc4)C3)cc2)C1 [Example 322, N-(4-{[(3R)-1-(2,2-dimethylpropanoyl)pyrrolidin-3-yl]oxy}phenyl)-3-(pyridin-3-yl)azetidine-1-carboxamide] | 7.46 | 7.90
10 | CC(C)CCC(=O)N1CC[C@@H](Oc2ccc(NC(=O)N3CC(c4cccnc4)C3)cc2)C1 [Example 315, N-(4-{[(3R)-1-(4-methylpentanoyl)pyrrolidin-3-yl]oxy}phenyl)-3-(pyridin-3-yl)azetidine-1-carboxamide] | 7.31 | 7.27
11 | O=C(Nc1ccc(OC2CN(C(=O)c3cscn3)C2)cc1)N1CC(c2cccnc2)C1 [Example 147, 3-(pyridin-3-yl)-N-(4-{[1-(1,3-thiazol-4-ylcarbonyl)azetidin-3-yl]oxy}phenyl)azetidine-1-carboxamide] | 7.78 | 8.29
12 | CN(C)CCC(=O)N1CCC(c2ccc(NC(=O)N3CC(c4cccnc4)C3)cc2)C1 (stereo not drawn) [Example 266, N-{4-[1-(N,N-dimethyl-beta-alanyl)pyrrolidin-3-yl]phenyl}-3-(pyridin-3-yl)azetidine-1-carboxamide] | 7.02 | 6.68
13 | CC1(C(=O)N2CCC(c3ccc(NC(=O)N4CC(c5cccnc5)C4)cc3)C2)CC1 (centres unmarked) [Example 269, N-(4-{1-[(1-methylcyclopropyl)carbonyl]pyrrolidin-3-yl}phenyl)-3-(pyridin-3-yl)azetidine-1-carboxamide] | 7.70 | 7.78
14 | O=C(CC1CC1)N1CC[C@@H](Oc2ccc(NC(=O)N3CC(c4cccnc4)C3)cc2)C1 [Example 81, N-(4-{[(3R)-1-(cyclopropylacetyl)pyrrolidin-3-yl]oxy}phenyl)-3-(pyridin-3-yl)azetidine-1-carboxamide] | 7.51 | 7.75
15 | O=C(CC1CC1)N1CCC(c2ccc(NC(=O)N3CC(c4cccnc4)C3)cc2)CC1 [Example 55, N-{4-[1-(cyclopropylacetyl)piperidin-4-yl]phenyl}-3-(pyridin-3-yl)azetidine-1-carboxamide] | 7.53 | 8.09
16 | O=C(Nc1ccc(O[C@@H]2CCN(C(=O)[C@H]3CCCO3)C2)cc1)N1CC(c2cccnc2)C1 [Example 79, 3-(pyridin-3-yl)-N-[4-({(3R)-1-[(2R)-tetrahydrofuran-2-ylcarbonyl]pyrrolidin-3-yl}oxy)phenyl]azetidine-1-carboxamide] | 7.03 | 7.38
17 | O=C(CCN1CCCCC1)N1CC[C@@H](Oc2ccc(NC(=O)N3CC(c4cccnc4)C3)cc2)C1 [Example 327, N-[4-({(3R)-1-[3-(piperidin-1-yl)propanoyl]pyrrolidin-3-yl}oxy)phenyl]-3-(pyridin-3-yl)azetidine-1-carboxamide] | 6.35 | 6.72
18 | O=C(Nc1ccc(C2CCN(C(=O)[C@@H]3CCCO3)CC2)cc1)N1CC(c2cccnc2)C1 [Example 52, 3-(pyridin-3-yl)-N-(4-{1-[(2S)-tetrahydrofuran-2-ylcarbonyl]piperidin-4-yl}phenyl)azetidine-1-carboxamide] | 7.41 | 8.17
19 | O=C(Nc1ccc(C2CCN(C(=O)[C@H]3CCCO3)CC2)cc1)N1CC(c2cccnc2)C1 [Example 54, 3-(pyridin-3-yl)-N-(4-{1-[(2R)-tetrahydrofuran-2-ylcarbonyl]piperidin-4-yl}phenyl)azetidine-1-carboxamide] | 6.93 | 7.23
20 | COCC(=O)N1CCC(Oc2ccc(NC(=O)N3CC(c4cccnc4)C3)cc2)CC1 [Example 48, N-(4-{[1-(methoxyacetyl)piperidin-4-yl]oxy}phenyl)-3-(pyridin-3-yl)azetidine-1-carboxamide] | 6.69 | 7.02
21 | CC(C)(C)CC(=O)N1CCC(Cc2ccc(NC(=O)N3CC(c4cccnn4)C3)cc2)CC1 [Example 351, N-(4-{[1-(3,3-dimethylbutanoyl)piperidin-4-yl]methyl}phenyl)-3-(pyridazin-3-yl)azetidine-1-carboxamide] |  | 6.18
22 | CC(=O)N1CCC(c2ccc(NC(=O)N3CC(c4cccnn4)C3)cc2)CC1 [Example 341, N-[4-(1-acetylpiperidin-4-yl)phenyl]-3-(pyridazin-3-yl)azetidine-1-carboxamide] |  | 5.05
23 | CCC(CC)C(=O)N1CCC(Cc2ccc(NC(=O)N3CC(c4cccnn4)C3)cc2)CC1 [Example 352, N-(4-{[1-(2-ethylbutanoyl)piperidin-4-yl]methyl}phenyl)-3-(pyridazin-3-yl)azetidine-1-carboxamide] |  | 6.22
24 | O=C(Nc1ccc(C2CCN(C(=O)[C@H]3CCOC3)CC2)cc1)N1CC(c2cccnc2)C1 [Example 159, 3-(pyridin-3-yl)-N-(4-{1-[(3S)-tetrahydrofuran-3-ylcarbonyl]piperidin-4-yl}phenyl)azetidine-1-carboxamide] |  | 7.13
25 | CC(C)(C)C(=O)N1CCC(c2ccc(NC(=O)N3CC(c4cccnn4)C3)cc2)CC1 [Example 339, N-{4-[1-(2,2-dimethylpropanoyl)piperidin-4-yl]phenyl}-3-(pyridazin-3-yl)azetidine-1-carboxamide] |  | 6.18
26 | O=C(CCC(F)(F)F)N1CCC(c2ccc(NC(=O)N3CC(c4cccnn4)C3)cc2)CC1 [Example 344, 3-(pyridazin-3-yl)-N-{4-[1-(4,4,4-trifluorobutanoyl)piperidin-4-yl]phenyl}azetidine-1-carboxamide] |  | 5.12
27 | O=C(Nc1ccc(C2CCN(C(=O)c3ccccc3)CC2)cc1)N1CC(c2cccnn2)C1 [Example 336, N-[4-(1-benzoylpiperidin-4-yl)phenyl]-3-(pyridazin-3-yl)azetidine-1-carboxamide] |  | 6.65
28 | CC(C)(C)C(=O)N1CCC(Cc2ccc(NC(=O)N3CC(c4cccnn4)C3)cc2)CC1 [Example 350, N-(4-{[1-(2,2-dimethylpropanoyl)piperidin-4-yl]methyl}phenyl)-3-(pyridazin-3-yl)azetidine-1-carboxamide] |  | 6.13
29 | CC[C@H](C)C(=O)N1CCC(Cc2ccc(NC(=O)N3CC(c4cccnn4)C3)cc2)CC1 [Example 356, N-[4-({1-[(2S)-2-methylbutanoyl]piperidin-4-yl}methyl)phenyl]-3-(pyridazin-3-yl)azetidine-1-carboxamide] |  | 6.10
30 | O=C(CC(F)(F)F)N1CCC(c2ccc(NC(=O)N3CC(c4cccnn4)C3)cc2)CC1 [Example 345, 3-(pyridazin-3-yl)-N-{4-[1-(3,3,3-trifluoropropanoyl)piperidin-4-yl]phenyl}azetidine-1-carboxamide] |  | 5.95
